Biological target: T1, human full length HSD11 β 1 (Homo sapiens, UniProt P28845)
T1 construct: transient expression of human full length HSD11 β 1 expression vector; host or cells: CHO cells (transient transfection)
Test: In Vitro HSD11β1 Inhibition Assay
Format: cell-based
Settings: CHO cells transiently expressing human HSD11β1; 200 nM cortisone+500 uM NADPH overnight; cortisone to cortisol by LC/MS-MS; read-out: 11βHSD1 (IC50)
Method: In Vitro HSD11β1 Inhibition Assay:
CHO cells were maintained in Dulbecco's modified Eagle's medium/nutrient mixture F-12 containing 5% fetal bovine serum (v/v) and 2 mM glutamine. Cells were cultured at 37° C. with 5% CO2. For transient expression of human full length HSD11 β 1 expression vector (OriGene Technologies), cells were seeded at a density of 2×10^5 cells/well in a 6-well plate. Transfection was done using Turbofectin8 reagent (OriGene Technologies), according to the protocol provided with the reagent. After 24 hours post-transfection, cells were trypsinized and pooled together before they were re-seeding to 96-well plate at a density of 40000 cells/well. 24 hours after re-seeding, cells were incubated with 200 nM cortisone+500 uM NADPH (or along with small molecule inhibitors) overnight. The enzymatic activity or inhibition of enzyme activity was measured by estimating the conversion of cortisone to cortisol by LC/MS-MS method. The IC50 in nM was calculated from an 8 point log scale of concentration versus inhibition.

T1 sequence (P28845 whole entry): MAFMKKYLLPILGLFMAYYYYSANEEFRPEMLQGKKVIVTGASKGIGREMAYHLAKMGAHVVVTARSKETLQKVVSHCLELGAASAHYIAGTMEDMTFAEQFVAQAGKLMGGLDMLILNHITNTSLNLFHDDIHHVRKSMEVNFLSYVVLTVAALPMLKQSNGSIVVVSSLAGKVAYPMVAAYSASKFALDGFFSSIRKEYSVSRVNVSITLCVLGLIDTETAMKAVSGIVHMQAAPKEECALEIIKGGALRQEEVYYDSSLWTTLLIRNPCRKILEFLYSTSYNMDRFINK

Row | IC50 [nM] | SMILES
1 | > 250 | Cn1cc(CCC(=O)N2CCO[C@@H]3CCCC[C@H]32)c2ccccc21 (relative stereo) [Compound 63, 3-(1-methyl-1H-indol-3-yl)-1-[(trans-4a,8a)-octahydro-4H-1,4-benzoxazin-4-yl]propan-1-one]
2 | < 100 | Cc1cccc2c1c(CCC(=O)N1CCO[C@@H]3CCCC[C@@H]31)cn2C (relative stereo) [Compound 66, 3-(1,4-dimethyl-1H-indol-3-yl)-1-[cis-(4a,8a)-octahydro-4H-1,4-benzoxazin-4-yl]propan-1-one]
3 | > 250 | O=C(CCc1nc2ccccc2s1)N1CCO[C@@H]2CCCC[C@H]21 (relative stereo) [Example 79, 3-(1,3-benzothiazol-2-yl)-1-[trans-(4a,8a)-octahydro-4H-1,4-benzoxazin-4-yl]propan-1-one]
4 | > 250 | O=C(CCc1c[nH]c2ccccc12)N1CCCC2CCCCC21 (single isomer, unassigned) [Compound 52, 3-(1H-indol-3-yl)-1-(octahydroquinolin-1(2H)-yl)propan-1-one]
5 | < 100 | O=C(CCc1c[nH]c2ccccc12)N1CCCC2CCCCC21 (single isomer, unassigned) [Compound 53, 3-(1H-indol-3-yl)-1-(octahydroquinolin-1(2H)-yl)propan-1-one]
6 | < 100 | CC12CCCCC1N(C(=O)CCc1c[nH]c3ccccc13)CCC2 (single isomer, unassigned) [Compound 55, 3-(1H-indol-3-yl)-1-(4a-methyloctahydroquinolin-1(2H)-yl)propan-1-one]
7 | 150 to 200 | CC12CCCCC1N(C(=O)CCc1c[nH]c3ccccc13)CCC2 (single isomer, unassigned) [Compound 56, 3-(1H-indol-3-yl)-1-(4a-methyloctahydroquinolin-1(2H)-yl)propan-1-one]
8 | > 250 | Cc1cccc2c1c(CCC(=O)N1CCO[C@@H]3CCCC[C@H]31)cn2C (single isomer, unassigned) [Compound 62, 3-(1,4-dimethyl-1H-indol-3-yl)-1-[(trans-4a,8a)-octahydro-4H-1,4-benzoxazin-4-yl]propan-1-one]
9 | > 250 | Cc1cccc2c1c(CCC(=O)N1CCO[C@@H]3CCCC[C@H]31)cn2C (single isomer, unassigned) [Compound 65, 3-(1,4-dimethyl-1H-Indol-3-yl)-1-[trans-(4a,8a)-octahydro-4H-1,4-benzoxazin-4-yl]propan-1-one]
10 | < 100 | CC(CC(=O)N1CCCC2C(C(=O)O)CCCC21)c1c[nH]c2cccc(C3CC3)c12 (single isomer, unassigned) [Compound 195, 1-[3-(4-cyclopropyl-1H-indol-3-yl)butanoyl]decahydroquinoline-5-carboxylic acid]
11 | < 100 | CC(CC(=O)N1CCCC2C(C(=O)O)CCCC21)c1c[nH]c2cccc(C3CC3)c12 (single isomer, unassigned) [Compound 196, 1-[3-(4-cyclopropyl-1H-indol-3-yl)butanoyl]decahydroquinoline-5-carboxylic acid]
12 | 100 to 150 | CC(CC(=O)N1CCCC2C(C(=O)O)CCCC21)c1c[nH]c2cccc(C3CC3)c12 (single isomer, unassigned) [Compound 198, 1-[3-(4-cyclopropyl-1H-indol-3-yl)butanoyl]decahydroquinoline-5-carboxylic acid]
13 | < 100 | CC(CC(=O)N1CCC[C@H]2[C@H](C(=O)O)CCC[C@@H]21)c1c[nH]c2cccc(C3CC3)c12 (single isomer, unassigned) [Compound 199, 1-[3-(4-cyclopropyl-1H-indol-3-yl)butanoyl]decahydroquinoline-5-carboxylic acid]
14 | < 100 | CC(CC(=O)N1CCCC2C(C(=O)O)CCCC21)c1c[nH]c2cccc(C3CC3)c12 (single isomer, unassigned) [Compound 200, 1-[3-(4-cyclopropyl-1H-Indol-3-yl)butanoyl]decahydroquinoline-5-carboxylic acid]
15 | > 250 | CC(CC(=O)N1CCCC2C(C(=O)O)CCCC21)c1cn(C)c2cccc(C3CC3)c12 (single isomer, unassigned) [Compound 212, 1-[3-(4-cyclopropyl-1-methyl-1H-indol-3-yl)butanoyl]decahydroquinoline-5-carboxylic acid]
16 | > 250 | CC(CC(=O)N1CCCC2C(C(=O)O)CCCC21)c1cn(C)c2cccc(C3CC3)c12 (single isomer, unassigned) [Compound 213, 1-[3-(4-cyclopropyl-1-methyl-1H-indol-3-yl)butanoyl]decahydroquinoline-5-carboxylic acid]

Row | IC50 [nM] | SMILES
17 | < 100 | CC(CC(=O)N1CCCC2C(C(=O)O)CCCC21)c1cn(C)c2cccc(C3CC3)c12 (single isomer, unassigned) [Compound 214, 1-[3-(4-cyclopropyl-1-methyl-1H-indol-3-yl)butanoyl]decahydroquinoline-5-carboxylic acid]
18 | < 100 | O=C(O)C1CCCC2C1CCCN2C(=O)CC(c1cccs1)c1c[nH]c2cccc(Cl)c12 (single isomer, unassigned) [Compound 218, 1-[3-(4-chloro-1H-indol-3-yl)-3-(thiophen-2-yl)propanoyl]decahydroquinoline-5-carboxylic acid]
19 | > 250 | O=C(O)C1CCCC2C1CCCN2C(=O)CC(c1cccs1)c1c[nH]c2cccc(Cl)c12 (single isomer, unassigned) [Compound 219, 1-[3-(4-chloro-1H-indol-3-yl)-3-(thiophen-2-yl)propanoyl]decahydroquinoline-5-carboxylic acid]
20 | 100 to 150 | CC(CC(=O)N1CCCC2C(C(=O)O)CCCC21)c1c[nH]c2cccc(-c3ccco3)c12 (single isomer, unassigned) [Compound 223, 1-{3-[4-(furan-2-yl)-1H-indol-3-yl]butanoyl}decahydroquinoline-5-carboxylic acid]
21 | < 100 | CC(CC(=O)N1CCCC2C(C(=O)O)CCCC21)c1c[nH]c2cccc(-c3ccco3)c12 (single isomer, unassigned) [Compound 224, 1-{3-[4-(furan-2-yl)-1H-indol-3-yl]butanoyl}decahydroquinoline-5-carboxylic acid]
22 | < 100 | O=C(O)C1CCN(C(=O)CC(c2ccc(F)cc2)c2c[nH]c3cccc(F)c23)C2CCCCC12 (single isomer, unassigned) [Compound 225, 1-[3-(4-fluoro-1H-indol-3-yl)-3-(4-fluorophenyl)propanoyl]decahydroquinoline-4-carboxylic acid]
23 | > 250 | O=C(O)C1CCN(C(=O)CC(c2ccc(F)cc2)c2c[nH]c3cccc(F)c23)C2CCCCC12 (single isomer, unassigned) [Compound 226, 1-[3-(4-fluoro-1H-indol-3-yl)-3-(4-fluorophenyl)propanoyl]decahydroquinoline-4-carboxylic acid]
24 | < 100 | CC(CC(=O)N1CCCC2C(C(=O)O)CCCC21)c1c[nH]c2cccc(-c3ccc(F)o3)c12 (single isomer, unassigned) [Compound 248, 1-{3-[4-(5-fluorofuran-2-yl)-1H-indol-3-yl]butanoyl}decahydroquinoline-5-carboxylic acid]
25 | 200 to 250 | CC(CC(=O)N1CCCC2C(C(=O)O)CCCC21)c1c[nH]c2cccc(-c3ccc(F)o3)c12 (single isomer, unassigned) [Compound 249, 1-{3-[4-(5-fluorofuran-2-yl)-1H-indol-3-yl]butanoyl}decahydroquinoline-5-carboxylic acid]
26 | < 100 | CC(CC(=O)N1CCCC2C(C(=O)O)CCCC21)c1c[nH]c2cccc(-c3ccc(F)o3)c12 (single isomer, unassigned) [Compound 250, 1-{3-[4-(5-fluorofuran-2-yl)-1H-indol-3-yl]butanoyl}decahydroquinoline-5-carboxylic acid]
27 | < 100 | CC(CC(=O)N1CCCC2C(C(=O)O)CCCC21)c1c[nH]c2cccc(-c3ccc(F)o3)c12 (single isomer, unassigned) [Compound 251, 1-{3-[4-(5-fluorofuran-2-yl)-1H-indol-3-yl]butanoyl}decahydroquinoline-5-carboxylic acid]
28 | < 100 | CC(CC(=O)N1CCCC2C(C(=O)O)CCCC21)c1c[nH]c2cccc(-c3ccc(F)cc3)c12 (single isomer, unassigned) [Compound 255, 1-{3-[4-(4-fluorophenyl)-1H-indol-3-yl]butanoyl}decahydroquinoline-5-carboxylic acid]
29 | > 250 | CC(CC(=O)N1CCCC2C(C(=O)O)CCCC21)c1c[nH]c2cccc(-c3ccc(F)cc3)c12 (single isomer, unassigned) [Compound 256, 1-{3-[4-(4-fluorophenyl)-1H-indol-3-yl]butanoyl}decahydroquinoline-5-carboxylic acid]
30 | > 250 | CC(C)C(CC(=O)N1CCCC2(C)CCCCC12)c1c[nH]c2cccc(F)c12 (single isomer, unassigned) [Example 115, 3-(4-fluoro-1H-indol-3-yl)-4-methyl-1-(4a-methyloctahydroquinolin-1(2H)-yl)pentan-1-one]
31 | > 250 | CC(C)C(CC(=O)N1CCCC2(C)CCCCC12)c1c[nH]c2cccc(F)c12 (single isomer, unassigned) [Example 116, 3-(4-fluoro-1H-indol-3-yl)-4-methyl-1-(4a-methyloctahydroquinolin-1(2H)-yl)pentan-1-one]
